This is an account of results in ChEMBL document CHEMBL6103603, “Novel Imidazo[4,5-c]pyridine Compounds as TLR7 Agonists for Treating Cancer” (ACS Med Chem Lett, 2025).

The target in this assay is T1, Toll-like receptor 7 (Homo sapiens, UniProt Q9NYK1).
T1 sequence (Q9NYK1 whole entry): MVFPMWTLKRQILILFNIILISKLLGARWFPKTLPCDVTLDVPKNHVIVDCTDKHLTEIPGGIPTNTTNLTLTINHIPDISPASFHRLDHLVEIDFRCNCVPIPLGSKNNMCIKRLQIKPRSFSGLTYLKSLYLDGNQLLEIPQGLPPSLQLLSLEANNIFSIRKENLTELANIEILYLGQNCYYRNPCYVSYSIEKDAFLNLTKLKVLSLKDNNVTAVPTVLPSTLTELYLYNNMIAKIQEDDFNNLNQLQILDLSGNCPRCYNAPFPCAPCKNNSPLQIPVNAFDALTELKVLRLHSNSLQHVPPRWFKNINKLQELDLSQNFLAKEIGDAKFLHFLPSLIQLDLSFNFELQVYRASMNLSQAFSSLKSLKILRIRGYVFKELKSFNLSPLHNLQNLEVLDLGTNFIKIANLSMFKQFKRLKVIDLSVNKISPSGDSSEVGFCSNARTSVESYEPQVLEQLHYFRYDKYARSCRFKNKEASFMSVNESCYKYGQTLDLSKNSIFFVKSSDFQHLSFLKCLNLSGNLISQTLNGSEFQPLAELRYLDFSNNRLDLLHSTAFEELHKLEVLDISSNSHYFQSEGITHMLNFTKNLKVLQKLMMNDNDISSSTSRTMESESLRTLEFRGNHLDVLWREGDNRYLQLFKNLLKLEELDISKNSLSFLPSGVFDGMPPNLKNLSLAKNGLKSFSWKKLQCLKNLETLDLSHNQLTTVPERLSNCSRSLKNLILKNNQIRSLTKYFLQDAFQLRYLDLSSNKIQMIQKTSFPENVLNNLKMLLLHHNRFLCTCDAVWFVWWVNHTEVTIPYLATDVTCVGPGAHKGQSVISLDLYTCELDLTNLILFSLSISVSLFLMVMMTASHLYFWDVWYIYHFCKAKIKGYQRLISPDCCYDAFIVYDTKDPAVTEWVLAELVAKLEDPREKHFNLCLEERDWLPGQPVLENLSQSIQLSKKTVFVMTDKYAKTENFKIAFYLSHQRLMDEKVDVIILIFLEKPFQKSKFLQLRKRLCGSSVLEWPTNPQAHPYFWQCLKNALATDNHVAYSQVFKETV
In words: Agonist activity at TLR7 in HEK-Blue hTLR7 cells expressing NF-kappaB/AP-1 inducible SEAP reporter gene using Quanti-blue as substrate preincubated for 20 hrs followed by substrate addition and measured after 1 hr by spectrophotometric analysis. It is filed as cell-based. For orientation: In a reporter assay the amount or activity of a reporter protein is the signal.

Usually EC50 stands for the concentration at which the effect is half-maximal.

With `CCOCc1nc2c(N)nc(C)c(Sc3ccc(CN(C)C)c(O)c3)c2[nH]1`, the concentration for a half-maximal effect (EC50) came to 10 nM.
